In patent US20110201628A1, “HETEROCYCLIC JAK KINASE INHIBITORS” (priority 2008, published 2011):

Columns and labels:
[1] = target: T1, N-terminal GST-tagged, recombinant, human JAK2 (amino acids 831-1132) (Homo sapiens, UniProt O60674); experiment: JAK2 mobility shift assay on Caliper LC3000 (Method 2); type: biochemical; conditions: 0.3 nM JAK2 enzyme, 5 mM ATP, 1.5 μM SRCtide, 90 minutes room temperature
T1 construct: human JAK2 (amino acids 831-1132, PLAZA database pAZB0359); GST (N); host or cells: insect cells
T1 sequence (O60674 831-1132): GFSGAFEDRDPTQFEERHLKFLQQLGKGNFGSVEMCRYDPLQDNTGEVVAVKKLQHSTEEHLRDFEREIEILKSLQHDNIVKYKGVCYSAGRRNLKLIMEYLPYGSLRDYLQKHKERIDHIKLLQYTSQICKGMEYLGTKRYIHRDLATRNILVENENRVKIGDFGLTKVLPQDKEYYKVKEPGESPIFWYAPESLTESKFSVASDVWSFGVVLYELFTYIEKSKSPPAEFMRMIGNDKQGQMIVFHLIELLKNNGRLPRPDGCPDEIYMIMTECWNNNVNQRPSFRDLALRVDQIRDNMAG
Method: Janus kinase 2 (JAK2) activity was also determined by measuring the kinase's ability to phosphorylate a tyrosine residue within a peptide substrate using a mobility shift assay on a Caliper LC3000 reader (Caliper, Hopkinton, Mass.), which measures fluorescence of the phosphorylated and unphosphorylated substrate and calculates a ratiometric value to determine percent turnover.
To measure JAK2 kinase activity, an in-house purified enzyme was used. […] After incubation of the kinase with a FAM labeled SRCtide substrate, adenosine triphosphate (ATP), and MgCl2 for 90 minutes at room temperature, the kinase reaction was stopped by the addition of 36 mM ethylenediaminetetraacetic acid (EDTA). The reaction was performed in 384 well microtitre plates and the reaction products were detected using the Caliper LC3000 Reader.

[2] = target: T2, C-terminal His6-tagged, recombinant, human JAK2, amino acids 808-end (Homo sapiens, UniProt O60674); experiment: JAK2 kinase Alphascreen assay (Method 1); type: biochemical; conditions: Alphascreen, 150 pM JAK2 enzyme, 5 mM ATP, 80 nM Tyk2 peptide, 60 minutes room temperature; read-out: IC50 Assay (Method 1)
T2 construct: His6 (C); purchased Upstate Biotechnology MA; host or cells: baculovirus in Sf21 cells
T2 sequence (O60674 808-1132 limits assumed): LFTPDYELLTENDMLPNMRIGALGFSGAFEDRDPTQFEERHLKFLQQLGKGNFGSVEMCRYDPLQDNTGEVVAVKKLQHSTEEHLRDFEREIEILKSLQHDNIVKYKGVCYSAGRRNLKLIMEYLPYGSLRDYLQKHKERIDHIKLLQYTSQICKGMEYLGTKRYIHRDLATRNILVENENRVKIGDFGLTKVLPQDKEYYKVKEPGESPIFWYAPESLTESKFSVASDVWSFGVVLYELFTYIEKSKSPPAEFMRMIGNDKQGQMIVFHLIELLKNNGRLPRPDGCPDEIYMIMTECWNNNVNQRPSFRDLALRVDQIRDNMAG
Method: To measure JAK2 kinase activity, a commercially available purified enzyme may be used. […] After incubation of the kinase with a biotinylated substrate and adenosine triphosphate (ATP) for 60 minutes at room temperature, the kinase reaction may be stopped by the addition of 30 mM ethylenediaminetetraacetic acid (EDTA). The reaction may be performed in 384 well microtitre plates and the reaction products may be detected with the addition of streptavidin coated Donor Beads and phosphotyrosine-specific antibodies coated Acceptor Beads using the EnVision Multilabel Plate Reader after an overnight incubation at room temperature. “Tween 20” is a registered trademark of ICI Americas, Inc.

| Structure (SMILES) | IC50 [1] [nM] | IC50 [2] [nM] |
| --- | --- | --- |
| COc1cnc(C(C)Nc2nc(Nc3cn(C)cn3)c3cc[nH]c3n2)nc1 (racemic) [Example 27, N^2-[1-(5-Methoxypyrimidin-2-yl)ethyl]-N^4-(1-methyl-1H-imidazol-4-yl)-7H-pyrrolo[2,3-d]pyrimidine-2,4-diamine] | 270 | – |
| CC(Nc1nc(Nc2cn(C)cn2)c2ccc(C(F)(F)F)nc2n1)c1ncc(F)cc1F (racemic) [Example 33, N^2-[1-(3,5-Difluoropyridin-2-yl)ethyl]-N^4-(1-methyl-1H-imidazol-4-yl)-7-(trifluoromethyl)pyrido[2,3-d]pyrimidine-2,4-diamine] | 26 | – |
| CCn1ncc2c(Nc3cn(C)cn3)nc(NC(C)c3ncc(F)cn3)nc21 (single isomer, unassigned) [Example 9(b), 1-Ethyl-N^6-[1-(5-fluoropyrimidin-2-yl)ethyl]-N^4-(1-methyl-1H-imidazol-4-yl)-1H-pyrazolo[3,4-d]pyrimidine-4,6-diamine] | 40 | – |
| CC(Nc1nc(Nc2cn(C)cn2)c2ccn(CCF)c2n1)c1ncc(F)cn1 (single isomer, unassigned) [Example 22(a), 7-(2-Fluoroethyl)-N^2-[1-(5-fluoropyrimidin-2-yl)ethyl]-N^4-(1-methyl-1H-imidazol-4-yl)-7H-pyrrolo[2,3-d]pyrimidine-2,4-diamine] | 2320 | – |
| CC(Nc1nc(Nc2cn(C)cn2)c2ccn(CCF)c2n1)c1ncc(F)cn1 (single isomer, unassigned) [Example 22(b), 7-(2-Fluoroethyl)-N^2-[1-(5-fluoropyrimidin-2-yl)ethyl]-N^4-(1-methyl-1H-imidazol-4-yl)-7H-pyrrolo[2,3-d]pyrimidine-2,4-diamine] | 7 | – |
| CC(Nc1nc(Nc2cn(C)cn2)c2ccn(C3CC3)c2n1)c1ncc(F)cn1 (single isomer, unassigned) [Example 24(b), 7-Cyclopropyl-N^2-[1-(5-fluoropyrimidin-2-yl)ethyl]-N^4-(1-methyl-1H-imidazol-4-yl)-7H-pyrrolo[2,3-d]pyrimidine-2,4-diamine] | 27 | – |
| CC(Nc1nc(Nc2cn(C)cn2)c2cc[nH]c2n1)c1ncc(F)cc1F (single isomer, unassigned) [Example 25(b), N^2-[1-(3,5-Difluoropyridin-2-yl)ethyl]-N^4-(1-methyl-1H-imidazol-4-yl)-7H-pyrrolo[2,3-d]pyrimidine-2,4-diamine] | 10 | – |
| COc1cnc(C(C)Nc2nc(Nc3cn(C)cn3)c3cc[nH]c3n2)nc1 (single isomer, unassigned) [Example 27(a), N^2-[1-(5-Methoxypyrimidin-2-yl)ethyl]-N^4-(1-methyl-1H-imidazol-4-yl)-7H-pyrrolo[2,3-d]pyrimidine-2,4-diamine] | 17600 | – |
| CC(Nc1nc(Nc2cn(C)cn2)c2cc(F)cnc2n1)c1ncc(F)cc1F (single isomer, unassigned) [Example 31(a), N^2-[1-(3,5-Difluoropyridin-2-yl)ethyl]-6-fluoro-N^4-(1-methyl-1H-imidazol-4-yl)pyrido[2,3-d]pyrimidine-2,4-diamine] | 80 | – |
| CC(Nc1nc(Nc2cn(C)cn2)c2cc(F)cnc2n1)c1ncc(F)cc1F (single isomer, unassigned) [Example 31(b), N^2-[1-(3,5-Difluoropyridin-2-yl)ethyl]-6-fluoro-N^4-(1-methyl-1H-imidazol-4-yl)pyrido[2,3-d]pyrimidine-2,4-diamine] | 15000 | – |
| CC(Nc1nc(Nc2cn(C)cn2)c2ccncc2n1)c1ncc(F)cc1F (single isomer, unassigned) [Example 43(b), N^2-[1-(3,5-Difluoropyridin-2-yl)ethyl]-N^4-(1-methyl-1H-imidazol-4-yl)pyrido[3,4-d]pyrimidine-2,4-diamine] | – | 1180 |
| CC(Nc1nc(Nc2cn(C)cn2)c2ccccc2n1)c1ncc(F)cn1 (single isomer, unassigned) [Example 45(a), N^2-[1-(5-Fluoropyrimidin-2-yl)ethyl]-N^4-(1-methyl-1H-imidazol-4-yl)quinazoline-2,4-diamine] | – | 64 |
| CC(Nc1nc(Nc2cn(C)cn2)c2ccccc2n1)c1ncc(F)cn1 (single isomer, unassigned) [Example 45(b), N^2-[1-(5-Fluoropyrimidin-2-yl)ethyl]-N^4-(1-methyl-1H-imidazol-4-yl)quinazoline-2,4-diamine] | – | 3 |
| Cc1ccc(S(=O)(=O)n2ccc3c(Nc4cn(C)cn4)nc(N[C@@H](C)c4ncc(F)cn4)nc32)cc1 [Example 3, N^2-[(1S)-1-(5-Fluoropyrimidin-2-yl)ethyl]-N^4-(1-methyl-1H-imidazol-4-yl)-7-[(4-methylphenyl)sulfonyl]-7H-pyrrolo[2,3-d]pyrimidine-2,4-diamine] | – | 213 |
| C[C@H](Nc1nc(Nc2cn(C)cn2)c2[nH]ccc2n1)c1ncc(F)cn1 [Example 6, N^2-[(1S)-1-(5-Fluoropyrimidin-2-yl)ethyl]-N^4-(1-methyl-1H-imidazol-4-yl)-5H-pyrrolo[3,2-d]pyrimidine-2,4-diamine] | – | < 3 |
| Cc1nc2c(Nc3cn(C)cn3)nc(N[C@@H](C)c3ncc(F)cn3)nc2s1 [Example 7, N^5-[(1S)-1-(5-Fluoropyrimidin-2-yl)ethyl]-2-methyl-N^7-(1-methyl-1H-imidazol-4-yl)[1,3]thiazolo[5,4-d]pyrimidine-5,7-diamine] | – | 1900 |
| C[C@H](Nc1nc2c(c(Nc3cn(C)cn3)n1)CCC2)c1ncc(F)cn1 [Example 8, N^2-[(1S)-1-(5-Fluoropyrimidin-2-yl)ethyl]-N^4-(1-methyl-1H-imidazol-4-yl)-6,7-dihydro-5H-cyclopenta[d]pyrimidine-2,4-diamine] | – | 16 |
| C[C@H](Nc1nc(Nc2cn(C)cn2)c2cnn(CCO)c2n1)c1ncc(F)cn1 [Example 15, 2-(6-{[(1S)-1-(5-Fluoropyrimidin-2-yl)ethyl]amino}-4-[(1-methyl-1H-imidazol-4-yl)amino]-1H-pyrazolo[3,4-d]pyrimidin-1-yl)ethanol] | – | 3 |
| C[C@H](Nc1nc(Nc2cn(C)cn2)c2cccnc2n1)c1ncc(F)cn1 [Example 16, N^2-[(1S)-1-(5-Fluoropyrimidin-2-yl)ethyl]-N^4-(1-methyl-1H-imidazol-4-yl)pyrido[2,3-d]pyrimidine-2,4-diamine] | – | < 3 |
| C[C@H](Nc1nc(Nc2cn(C)cn2)c2cc(C(F)(F)F)[nH]c2n1)c1ncc(F)cn1 [Example 19, N^2-[(1S)-1-(5-Fluoropyrimidin-2-yl)ethyl]-N^4-(1-methyl-1H-imidazol-4-yl)-6-(trifluoromethyl)-7H-pyrrolo[2,3-d]pyrimidine-2,4-diamine] | 13 | – |
| Cc1cc2c(Nc3cn(C)cn3)nc(N[C@@H](C)c3ncc(F)cn3)nc2[nH]1 [Example 20, N^2-[(1S)-1-(5-Fluoropyrimidin-2-yl)ethyl]-6-methyl-N^4-(1-methyl-1H-imidazol-4-yl)-7H-pyrrolo[2,3-d]pyrimidine-2,4-diamine] | 13 | – |
| COc1ccc2nc(N[C@@H](C)c3ncc(F)cn3)nc(Nc3cn(C)cn3)c2c1 [Example 28, N^2-[(1S)-1-(5-Fluoropyrimidin-2-yl)ethyl]-6-methoxy-N^4-(1-methyl-1H-imidazol-4-yl)quinazoline-2,4-diamine] | – | 670 |
| COc1ccc2c(Nc3cn(C)cn3)nc(N[C@@H](C)c3ncc(F)cn3)nc2c1 [Example 30, N^2-[(1S)-1-(5-Fluoropyrimidin-2-yl)ethyl]-7-methoxy-N^4-(1-methyl-1H-imidazol-4-yl)quinazoline-2,4-diamine] | – | 4 |
| C[C@H](Nc1nc(Nc2cn(C)cn2)c2ccc(NC3CC3)nc2n1)c1ncc(F)cn1 [Example 36, N^7-Cyclopropyl-N^2-[(1S)-1-(5-fluoropyrimidin-2-yl)ethyl]-N^4-(1-methyl-1H-imidazol-4-yl)pyrido[2,3-d]pyrimidine-2,4,7-triamine] | – | 3 |
| C[C@H](Nc1ccc2c(Nc3cn(C)cn3)nc(N[C@@H](C)c3ncc(F)cn3)nc2n1)c1ncc(F)cn1 [Example 39, N^2,N^7-bis[(1S)-1-(5-fluoropyrimidin-2-yl)ethyl]-N^4-(1-methyl-1H-imidazol-4-yl)pyrido[2,3-d]pyrimidine-2,4,7-triamine] | – | 3 |
| C[C@H](Nc1nc(Nc2cn(C)cn2)c2ccc(Cl)nc2n1)c1ncc(F)cn1 [Example 42, 7-Chloro-N^2-[(1S)-1-(5-fluoropyrimidin-2-yl)ethyl]-N^4-(1-methyl-1H-imidazol-4-yl)pyrido[2,3-d]pyrimidine-2,4-diamine] | – | < 3 |
| C[C@H](Nc1nc(Nc2cn(C)cn2)c2ccccc2n1)c1ncc(F)cn1 [Example 45, N^2-[(1S)-1-(5-Fluoropyrimidin-2-yl)ethyl]-N^4-(1-methyl-1H-imidazol-4-yl)quinazoline-2,4-diamine] | – | < 3 |
| C[C@H](Nc1nc(Nc2cn(C)cn2)c2cn[nH]c2n1)c1ncc(F)cn1 [Example 46, N^6-[(1S)-1-(5-Fluoropyrimidin-2-yl)ethyl]-N^4-(1-methyl-1H-imidazol-4-yl)-1H-pyrazolo[3,4-d]pyrimidine-4,6-diamine] | – | 21 |
